Patent publication US12521448B2, “Preparation of solid cyclodextrin complexes for ophthalmic active pharmaceutical ingredient delivery” (Oculis Operations Sarl, priority 2016, dated 2026)

Experiments:
[1] = Degradation on heating of drug suspensions in aqueous γ-cyclodextrin solutions (autoclave vs 95° C.); format: physicochemical; conditions: autoclaving with γ-cyclodextrin
Description: Diclofenac is suspended in aqueous solutions containing from 1% (w/v) to 15% (w/v) γ-cyclodextrin.

[2] = Dehydration of dexamethasone to 16,17-unsaturated dexamethasone and dexamethasone enol aldehydes during preparation/autoclaving of eye drops; format: physicochemical; conditions: aqueous eye drops
Experimental: The dehydration of dexamethasone during preparation of the aqueous dexamethasone eye drops described in Example 1 (formulations F1, F2, F3, F4, F5 and F6) is determined by quantitative determination of 16,17-unsaturated dexamethasone and the dexamethasone enol aldehydes in the eye drops after manufacturing. Formulations F12, F13 and F14 are prepared as described in F1, that is by dissolving or suspending the ingredients, including dexamethasone, in pure water and autoclaving the mixture in sealed vial at 121° C. for 20 minutes. The substantially clear aqueous vials are removed from the autoclave and become cloudy upon cooling at ambient conditions. […] F13 comprises dexamethasone and γ-cyclodextrin suspended in pure water. F14 comprises dexamethasone suspended in pure water. The effect of excipients and preparation methods on the formation of 16,17-unsaturated dexamethasone and the dexamethasone enol aldehydes is presented as the fraction (in %) of dexamethasone degraded to form 16,17-unsaturated dexamethasone and the dexamethasone enol aldehydes.
The amount of 16,17-unsaturated dexamethasone and dexamethasone enol aldehydes formed, presented as the fraction (in %) of dexamethasone degraded to form 16,17-unsaturated dexamethasone and dexamethasone enol aldehydes, in aqueous eye drops after no autoclaving (i.e., heating to 121° C. for 20 minutes) once, twice and three times is shown in Table 3. […]

effect of γ-cyclodextrin on aqueous diclofenac solutions during autoclaving [1] | fraction of dexamethasone degraded to 16,17-unsaturated dexamethasone and dexamethasone enol aldehydes ([2]; pH 2.5, 0 autoclaving cycles (121° C., 20 min)) [%] | fraction of dexamethasone degraded to 16,17-unsaturated dexamethasone and dexamethasone enol aldehydes ([2]; pH 2.5, 1 autoclaving cycle (121° C., 20 min)) [%] | fraction of dexamethasone degraded to 16,17-unsaturated dexamethasone and dexamethasone enol aldehydes ([2]; pH 2.5, 2 autoclaving cycles (121° C., 20 min)) [%] | fraction of dexamethasone degraded to 16,17-unsaturated dexamethasone and dexamethasone enol aldehydes ([2]; pH 2.5, 3 autoclaving cycles (121° C., 20 min)) [%] | fraction of dexamethasone degraded to 16,17-unsaturated dexamethasone and dexamethasone enol aldehydes ([2]; pH 4.0, 0 autoclaving cycles (121° C., 20 min)) [%] | fraction of dexamethasone degraded to 16,17-unsaturated dexamethasone and dexamethasone enol aldehydes ([2]; pH 4.0, 1 autoclaving cycle (121° C., 20 min)) [%] | fraction of dexamethasone degraded to 16,17-unsaturated dexamethasone and dexamethasone enol aldehydes ([2]; pH 4.0, 2 autoclaving cycles (121° C., 20 min)) [%] | fraction of dexamethasone degraded to 16,17-unsaturated dexamethasone and dexamethasone enol aldehydes ([2]; pH 4.0, 3 autoclaving cycles (121° C., 20 min)) [%] | fraction of dexamethasone degraded to 16,17-unsaturated dexamethasone and dexamethasone enol aldehydes ([2]; pH 5.5, 0 autoclaving cycles (121° C., 20 min)) [%] | fraction of dexamethasone degraded to 16,17-unsaturated dexamethasone and dexamethasone enol aldehydes ([2]; pH 5.5, 1 autoclaving cycle (121° C., 20 min)) [%] | fraction of dexamethasone degraded to 16,17-unsaturated dexamethasone and dexamethasone enol aldehydes ([2]; pH 5.5, 2 autoclaving cycles (121° C., 20 min)) [%] | fraction of dexamethasone degraded to 16,17-unsaturated dexamethasone and dexamethasone enol aldehydes ([2]; pH 5.5, 3 autoclaving cycles (121° C., 20 min)) [%] | fraction of dexamethasone degraded to 16,17-unsaturated dexamethasone and dexamethasone enol aldehydes ([2]; pH 7.0, 0 autoclaving cycles (121° C., 20 min)) [%] | fraction of dexamethasone degraded to 16,17-unsaturated dexamethasone and dexamethasone enol aldehydes ([2]; pH 7.0, 1 autoclaving cycle (121° C., 20 min)) [%] | fraction of dexamethasone degraded to 16,17-unsaturated dexamethasone and dexamethasone enol aldehydes ([2]; pH 7.0, 2 autoclaving cycles (121° C., 20 min)) [%] | fraction of dexamethasone degraded to 16,17-unsaturated dexamethasone and dexamethasone enol aldehydes ([2]; pH 7.0, 3 autoclaving cycles (121° C., 20 min)) [%] | Compound
intense coloring | – | – | – | – | – | – | – | – | – | – | – | – | – | – | – | – | O=C(O)Cc1ccccc1Nc1c(Cl)cccc1Cl [Diclofenac, diclofenac]
– | 0.08 | 1.06 | 2.29 | 3.12 | 0.08 | 1.14 | 2.19 | 3.03 | 0.08 | 1.22 | 2.27 | 3.46 | 0.08 | 0.86 | 1.64 | 2.57 | C[C@@H]1C[C@H]2[C@@H]3CCC4=CC(=O)C=C[C@]4(C)[C@@]3(F)[C@@H](O)C[C@]2(C)[C@@]1(O)C(=O)CO [dexamethasone]
